Laboratory results reported in article PMC9124651, “High-performance thin-layer chromatography in combination with an acetylcholinesterase-inhibition bioassay with pre-oxidation of organothiophosphates to determine neurotoxic effects in storm, waste, and surface water” (Analytical and Bioanalytical Chemistry, 2022).
≈ marks a conversion by molar mass, not a printed value.

Tests used:
[1] = biological target: T1, AChE from electric eel (Electrophorus electricus) (Electrophorus electricus, UniProt O42275); test: Recovery of AChE-I effect peak area in spiked water samples after SPE and HPTLC-Ox-AChE-I (spray); details: for Recovery of the effect peak area related to positive control (100%): spiked 100 ng OTP, SPE, 10 ng/spot, NBS oxidation, spray, ± SD, n = 4; for AChE-I effect recoveries in comparison to the positive control, range over samples: samples from stormwater retention basin and receiving stream, after SPE and HPTLC-Ox-AChE-I
T1 construct: purchased Sigma-Aldrich GmbH (Steinheim, Germany)
T1 sequence (O42275 24-633): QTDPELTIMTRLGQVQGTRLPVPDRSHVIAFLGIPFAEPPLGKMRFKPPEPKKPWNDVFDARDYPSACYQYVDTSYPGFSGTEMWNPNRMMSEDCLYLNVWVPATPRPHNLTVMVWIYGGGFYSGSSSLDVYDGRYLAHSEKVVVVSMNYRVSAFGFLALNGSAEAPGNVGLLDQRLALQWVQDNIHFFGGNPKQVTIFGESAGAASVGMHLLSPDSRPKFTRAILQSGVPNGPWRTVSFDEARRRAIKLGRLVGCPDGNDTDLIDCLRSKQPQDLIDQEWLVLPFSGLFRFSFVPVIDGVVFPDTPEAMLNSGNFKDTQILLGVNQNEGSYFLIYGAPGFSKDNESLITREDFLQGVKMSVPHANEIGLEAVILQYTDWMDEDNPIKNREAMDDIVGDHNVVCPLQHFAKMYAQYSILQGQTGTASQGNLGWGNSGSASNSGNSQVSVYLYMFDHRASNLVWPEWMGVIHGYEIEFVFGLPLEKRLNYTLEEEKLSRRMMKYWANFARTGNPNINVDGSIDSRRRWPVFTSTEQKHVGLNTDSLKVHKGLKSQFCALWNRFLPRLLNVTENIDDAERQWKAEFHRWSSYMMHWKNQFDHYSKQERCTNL
Procedure: The samples were enriched by SPE within 24 h after sampling. Moreover, the field blank and water for a SPE blank were enriched in the same way. For additional matrix investigations, 1 mL malathion, parathion, and chlorpyrifos (100 ng/mL in methanol) were spiked into native samples taken in August 2020 and a water control before being loaded on the SPE cartridges. The cartridges (150 mg, Oasis HLB 6 cc, Waters GmbH, Eschborn, Germany) were conditioned with methanol (2 × 5 mL) and equilibrated with water (2 × 5 mL), before being loaded with 1000 ± 5 mL sample (the exact volume was determined by weighting) through a polytetrafluoroethylene tube. After drying the cartridges under vacuum, they were stored at − 18 °C until further usage. The cartridges were eluted with methanol (5 × 5 mL) that was evaporated afterward at 60 °C under a gentle nitrogen gas stream. The dried extracts were redissolved in 1 mL methanol to achieve a nominal 1000-fold enrichment.
The extracts, spiked samples, positive controls (PC: mix of malathion, parathion, and chlorpyrifos), and blanks were tested with the HPTLC-Ox-AChE-I method as described in the “Combination of HPTLC and AChE-inhibition assay” section. Each sample was tested in duplicates on two HPTLC plates (n = 4). The application volume was 100 µL resulting in a PC of 2000 ng/spot. The resulting amounts for the matrix investigation were 1000 and 10 ng/spot for the PCs and 10 ng/spot for the spiked samples. The matrix investigation was performed with and without the oxidation step. Excel was used to relate the peak areas of the spiked samples to the peak areas of the PCs (10 ng/spot). Differences between both approaches (oxidation and no oxidation) were shown by comparing the results of the spiked samples and PCs.

[2] = biological target: T1, AChE from electric eel (Electrophorus electricus); test: HPTLC-(Ox)-AChE-I assay, spray method (AChE sprayed onto plates); assay type: biochemical
Procedure: (§1) LiChrospher 10 × 20 cm HPTLC Silica gel 60 F254s plates (Merck, Darmstadt, Germany) with a layer thickness of 170–190 µm and spherical silica particles with a size of 7 µm were used. The HPTLC plates were immersed twice in 2-propanol for 20 min, each time followed by a drying step at room temperature for 20 min. The plates then were pre-developed with methanol, dried for 20 min at room temperature, heated at 105 °C for 20 min, and stored in a desiccator for further use. The automatic TLC Sampler 4 (ATS 4, CAMAG AG, Muttenz, Switzerland) was used for sample application. The desired sample volumes were sprayed as 6-mm-wide bands onto the HPTLC plates with an application speed of 300 nL/s. The distances of the exterior bands from the edges of the plates were 15 mm. The distance from the bottom edge was 8 mm for all bands. Methanol was used as rinsing solvent. The following further application parameters were used: filling speed 15 µL/s, pre-dosage volume 200 nL, retraction volume 200 nL, rinsing vacuum time 4 s, filling vacuum time 0 s, rinsing cycles 2, and filling cycles 1. The development of the HPTLC plates was realized by the Automated Multiple Development 2 (AMD 2, CAMAG, Muttenz, Switzerland). The OTPs, their oxons, and environmental samples were separated with an eluent mixture of cyclohexane, dichloromethane, and acetone in different proportions and with increasing migration distances (Fig. S2). After each development step, a drying step of 3 min under vacuum followed. The final migration distance was 80 mm and the whole procedure took approximately 45 min. In addition, a simpler development process was used containing only the last step of the previous described method.
(§2) The following AChE-I assay was performed in parts according to Mendoza et al., Stütz et al., and Weins and Jork. AChE was buffered in TRIS/HCl at a pH of 7.8 (2.5 U/mL). The AChE solution was either sprayed onto the HPTLC plates with a glass reagent sprayer until the plates were evenly moist (approx. 10 mL) or the plates were immersed in the AChE solution using the Chromatogram Immersion Device 3 (CID 3, CAMAG, Muttenz, Switzerland). The immersion volume, speed, time, and depth were approx. 200 mL, 2.5 cm/s, 2 s, and approx. 85 mm, respectively. Afterward, the plates were placed separately in closed plastic boxes, which contained paper towels moistened with water to gain a saturated atmosphere. An incubation at 37 °C for 5 min followed. The substrate indoxyl acetate was freshly prepared in methanol at a concentration of 20 mg/mL and 5 mL was sprayed onto the HPTLC plates with a glass reagent sprayer. During 45-min incubation time at room temperature, AChE cleaves the substrate into indoxyl and acetate. The indoxyl reacts with oxygen to the blue indigo dye. When AChE was inhibited, no indigo was produced and the spot stayed white. The TLC Scanner 3 (CAMAG, Muttenz, Switzerland) was used to scan each track on the plates at 670 nm using the fluorescence mode without optical filter. The CAMAG-embedded software Wincats (Vers. 1.4.9) was used to provide chromatograms of each track and to evaluate inhibition zones.
Several amounts of an OTP mix and an oxon mix were applied on HPTLC plates (Tab. S2) and tested as described in the “Combination of HPTLC and AChE-inhibition assay” section. Three plates were used for each dilution series. The application volume was 10 µL for investigating OTPs with following oxidation and 100 µL for testing OTPs without following oxidation. The application volume for the oxons was 10 µL. They were tested without oxidation step also in triplicates. The peak heights were used for evaluation. Only peaks that have a signal-to-noise ratio ≥ 3 were considered in the evaluation. The height next to the respective peak defines the noise.

[3] = biological target: T1, AChE from electric eel (Electrophorus electricus); test: HPTLC-(Ox)-AChE-I assay, immersion method (plates immersed in AChE solution); assay type: biochemical; details: without oxidation
Procedure: as §1
as §2, with “After chromatographic development, 10 mL of freshly prepared NBS (100 µg/mL) was sprayed onto the HPTLC plates with a glass reagent sprayer, followed by a 5-min incubation at room temperature. The following” for “The following”
Several amounts of an OTP mix and an oxon mix were applied on HPTLC plates (Tab. S2) and tested as described in the “Combination of HPTLC and AChE-inhibition assay” section. Three plates were used for each dilution series. The application volume was 10 µL for investigating OTPs with following oxidation and 100 µL for testing OTPs without following oxidation. The application volume for the oxons was 10 µL. They were tested without oxidation step also in triplicates. The peak heights were used for evaluation. Only peaks that have a signal-to-noise ratio ≥ 3 were considered in the evaluation. The height next to the respective peak defines the noise. […]

[4] = biological target: T1, AChE from electric eel (Electrophorus electricus); test: AChE-inhibition microtiter assay (Ellman, 96-well, with or without NBS oxidation); assay type: biochemical; details: no oxidation, 4-PL fit, n = 4
Procedure: Stock solutions (1 mg/mL) of NBS and ascorbic acid were each freshly prepared before the test and then diluted to 10 µg/mL and 100 µg/mL, respectively. The assay was performed with modifications according to Ellman’s method. OTPs, oxons, water, and methanol blanks (15 µL) were each mixed with 15 µL of NBS (10 µg/mL) in a 96-well plate. After an incubation at room temperature for 5 min, the reaction was stopped by adding 15 µL ascorbic acid (100 µg/mL). For the test setup without oxidation, OTPs, oxons, water, and methanol blanks (15 µL) were mixed with 30 µL water per well. Subsequently, 200 µL of a DTNB solution (0.15 mM), buffered in TRIS/HCl at a pH of 7.4, was added to each well of both test setups. Then, 20 µL of an AChE solution (0.5 U/mL), also buffered in TRIS/HCl at a pH of 7.4, was added. An incubation at 30 °C for 30 min without shaking followed. An ATCL solution (0.8 mM) was freshly prepared with water and 30 µL per well was added after incubation. During another incubation at room temperature for 30 min, ATCL was cleaved by AChE into thiocholine and acetic acid. Thiocholine reacts with DTNB to 2-nitro-5-thiobenzoate. The absorbance of the yellow-colored anion was photometrically measured at 405 nm (Sunrise Remote, Tecan Group AG, Männedorf, Schweiz).
Dilution series with eight concentrations of the three OTPs and related oxons (Tab. S1) were freshly prepared from stock solutions (1–10 mg/mL) in methanol. The OTPs and oxons were tested in duplicates with and without prior oxidation in two measurements as described in the “AChE-inhibition microtiter assay” section. Eight water and eight methanol blanks were tested per test setup (oxidation and no oxidation). Of these, two were tested without AChE and two without ATCL. The mean AChE activity (absorption at 405 nm, n = 4) was related to the specific inhibitor dose. The statistic program Prism (version 5.00, Graph Pad Software, San Diego, USA) was used to generate dose–response curves (4-PL fit) and to determine inhibition concentrations (ICs) for the three OTPs and related oxons. The 95% confidence intervals of the curves and the standard deviations of the mean AChE activity were also calculated. The lower boundary of the curves is fixed to 0 and the highest mean activity defines 100%.

[5] = Spiked water (ultrapure water control)
[6] = sampling point Stormwater basin
[7] = spray method, without oxidation
[8] = spray method, without oxidation, OTPs 100 µL, oxons 10 µL applied, peak heights, n = 3
[9] = OTPs 100 µL, oxons 10 µL applied, peak heights, n = 3

Structure (SMILES) | Recovery of the effect peak area related to positive control (100%) [1, 5] [%] | AChE-I effect recoveries in comparison to the positive control, range over samples [1] | Recovery of the effect peak area related to positive control (100%) ([1]; sampling point Downstream) [%] | Recovery of the effect peak area related to positive control (100%) [1, 6] [%] | Recovery of the effect peak area related to positive control (100%) ([1]; sampling point Upstream) [%] | LOD spray method (first detected AChE-I peak with signal-to-noise ratio ≥ 3) [2, 7] [ng/spot] | LOD immersion method (first detected AChE-I peak with signal-to-noise ratio ≥ 3) [3] [ng/spot] | Effect of higher NBS concentration on AChE on the HPTLC plate ([2]; 1 mg/mL NBS tested for oxidation on HPTLC plate, application method not stated) | IC10 (10% AChE inhibition), best fit [2, 8] [ng/spot] | IC20 (20% AChE inhibition), best fit [2, 8] [ng/spot] | IC50 (50% AChE inhibition), best fit [2, 8] [ng/spot] | IC80 (80% AChE inhibition), best fit [2, 8] [ng/spot] | IC10 (10% AChE inhibition), best fit [3, 9] [ng/spot] | IC20 (20% AChE inhibition), best fit [3, 9] [ng/spot] | IC50 (50% AChE inhibition), best fit [3, 9] [ng/spot] | IC80 (80% AChE inhibition), best fit [3, 9] [ng/spot] | IC80 ([4]; read-out: IC20 (inhibition concentration for 20% AChE activity), best fit) [µg/mL] | IC20 ([4]; read-out: IC80 (inhibition concentration for 80% AChE activity), best fit) [µg/mL]
CCOP(=S)(OCC)Oc1ccc([N+](=O)[O-])cc1 [Parathion, parathion] | 74 ± 3 | 75–82% | 79 ± 13 | 75 ± 9 | 82 ± 10 | 100 | 500 | – | – | – | – | – | – | – | – | – | – | –
O=C1CCC(=O)N1Br [NBS, N-Bromosuccinimide] | – | – | – | – | – | – | – | lower activity or inhibition of AChE | – | – | – | – | – | – | – | – | – | –
CCOC(=O)CC(SP(=S)(OC)OC)C(=O)OCC (stereo not shown) [Malathion, malathion] | 85 ± 6 | – | 87 ± 12 | 81 ± 8 | 92 ± 11 | 250 | 250 | – | 212 | 493 | 2096 | 8910 | 313 | 536 | 1343 | 3363 | – | –
CCOP(=S)(OCC)Oc1nc(Cl)c(Cl)cc1Cl [Chlorpyrifos, chlorpyrifos] | 63 ± 4 | 69–78% | 69 ± 5 | 74 ± 5 | 78 ± 7 | 250 | 500 | – | – | – | – | – | – | – | – | – | – | –
CCOP(=O)(OCC)Oc1ccc([N+](=O)[O-])cc1 [Paraoxon, paraoxon] | – | – | – | – | – | – | – | – | 0.79 | 1.2 | – | 5.9 | 0.60 | 0.99 | – | 5.4 | 0.071 (≈ 0.258 µM) | 0.016 (≈ 0.0581 µM)
